Results from publication PMC8776995 (Frontiers in Chemistry, 2022).
Where “and” joins values, the source holds several entries; their conditions need not be identical. Identical values can stand only once.

Columns and labels:
[1] = system: AKT phosphorylation (S473) in PC-9 cells; assay: Western blot, p-AKT/AKT in PC-9; details: PC-9, 10 uM
Method: (§1) We also performed western blot analysis to evaluate the impact of e4 and e12 on EGFR signaling in PC-9 and H460 cells.
(§2) H460 cells were seeded in six-well plates with serum-free medium overnight, and then treated complete medium containing 0.1% DMSO, various concentrations (0.1, 1 and 10 μM) of either compound e4 or e12 for 2 h, respectively. […] Then the H460 cells were treated with complete medium containing EGF (10 ng/ml) for 5 min. Then the cells were harvested and washed with PBS, centrifuged, resuspended in 100–200 μl of RIPA lysis buffer containing Protease and Phosphatase Inhibitor Cocktail (1X), and then centrifuged for 5 min at 12,000 rpm at 4°C. The supernatant was used for protein analysis. […] Then the membrane was washed 5 min (X3) and incubated at 1:3,000 dilution of anti-rabbit secondary antibodies or 1:1,000 dilution of anti-mouse secondary antibodies for 1 h at RT. After washing with TBST 5 min (X3), protein bands were developed by chemiluminescence. The protein levels were quantified by the gray values of the bands in the resulting images by ImageJ, and the control group was used as the standard. […] The PC-9 cells were harvested and analyzed as above.

[2] = system: EGFR phosphorylation (Tyr1068) in H460 cells; assay: Western blot, p-EGFR/EGFR in H460; details: H460, 10 uM
Method: as §1, §2

PC-9 xenograft = assay: In vivo antitumor activity, PC-9 xenograft in NSG mice; design: species or system mouse; details: Day19, individual animals
Method: The mouse body mass was recorded as well.

[3] = system: EGFR phosphorylation (Tyr1068) in PC-9 cells; assay: Western blot, p-EGFR/EGFR in PC-9; details: PC-9, 10 uM
Method: as §1, §2

wild-type EGFR = wild-type EGFR (Homo sapiens, UniProt P00533); assay: EGFR kinase assay (ELISA); details: for A450: raw ELISA absorbance
A549 cells = assay: CCK-8 antiproliferation assay, A549; details: for Inhibitory efficacy: A549 cells
Method: The compounds were dissolved in DMSO to make a 20 μM stock solution and diluted to the concentration of working solutions with complete growth medium before administration.
Cells were seeded in 96-well plates: 3,000–5,000 cells/well in 100 ul. One day after seeding, the test compounds at concentration between 1.0 and 16.0 μ M or 0.1% DMSO (as control) were added to cells in triplicate. 48 h later, CCK-8 was added and incubated the plate for 1–4 h in the incubator. The absorbance at 450 nm were measured using a microplate reader (Bio-Tek).

[4] = system: AKT phosphorylation (S473) in H460 cells; assay: Western blot, p-AKT/AKT in H460; details: H460, 10 uM
Method: as §1, §2

H1975 cells = assay: CCK-8 antiproliferation assay, H1975
H460 cells = assay: CCK-8 antiproliferation assay, H460
PC-9 cells = assay: CCK-8 antiproliferation assay, PC-9; details: Homo sapiens, PC-9, 48 h, read-out: IC50 (μM) PC-9

Sequence of wild-type EGFR (P00533 25-1210): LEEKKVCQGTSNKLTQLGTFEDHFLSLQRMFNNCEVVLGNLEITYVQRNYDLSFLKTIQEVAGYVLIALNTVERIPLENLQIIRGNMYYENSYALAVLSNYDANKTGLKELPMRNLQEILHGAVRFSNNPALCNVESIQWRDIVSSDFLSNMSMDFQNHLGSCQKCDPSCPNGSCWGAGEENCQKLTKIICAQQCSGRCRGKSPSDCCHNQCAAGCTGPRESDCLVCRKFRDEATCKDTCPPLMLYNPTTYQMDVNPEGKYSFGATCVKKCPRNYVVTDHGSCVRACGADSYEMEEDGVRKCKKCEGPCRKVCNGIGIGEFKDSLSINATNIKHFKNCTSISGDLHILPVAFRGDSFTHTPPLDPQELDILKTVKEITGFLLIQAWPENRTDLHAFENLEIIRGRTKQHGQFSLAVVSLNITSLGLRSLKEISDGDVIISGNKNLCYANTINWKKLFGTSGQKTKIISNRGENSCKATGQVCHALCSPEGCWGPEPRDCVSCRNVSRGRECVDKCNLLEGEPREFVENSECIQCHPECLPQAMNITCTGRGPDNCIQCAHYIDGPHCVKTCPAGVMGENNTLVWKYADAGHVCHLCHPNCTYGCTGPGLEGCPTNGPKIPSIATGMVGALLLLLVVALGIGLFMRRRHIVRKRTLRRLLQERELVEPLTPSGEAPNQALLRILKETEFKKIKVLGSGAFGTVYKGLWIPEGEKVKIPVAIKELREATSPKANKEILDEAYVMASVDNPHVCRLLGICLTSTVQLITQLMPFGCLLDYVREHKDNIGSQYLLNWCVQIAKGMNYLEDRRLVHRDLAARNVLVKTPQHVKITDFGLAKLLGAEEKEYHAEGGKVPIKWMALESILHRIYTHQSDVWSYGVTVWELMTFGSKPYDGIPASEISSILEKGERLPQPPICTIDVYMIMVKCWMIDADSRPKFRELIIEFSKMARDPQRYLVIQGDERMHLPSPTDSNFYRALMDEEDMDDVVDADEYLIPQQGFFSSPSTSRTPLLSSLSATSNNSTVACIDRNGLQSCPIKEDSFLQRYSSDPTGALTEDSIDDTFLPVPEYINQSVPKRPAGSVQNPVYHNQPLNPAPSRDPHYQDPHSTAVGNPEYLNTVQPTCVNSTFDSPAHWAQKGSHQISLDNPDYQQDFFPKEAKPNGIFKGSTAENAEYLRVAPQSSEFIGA

COCCOc1cc2ncnc(Nc3cccc(-c4cn(-c5ccccc5)nn4)c3)c2cc1OCCOC [e15, [6,7-Bis-(2-methoxy-ethoxy)-quinazolin-4-yl]-[3-(1-phenyl-1H-[1,2,3]triazol-4-yl)-phenyl]-amine]
p-AKT/AKT ([1]; band density ratio): 0.03365
p-AKT/AKT relative to DMSO ([1]; ratio normalised to DMSO = 1): 0.03231
p-EGFR/EGFR ([2]; band density ratio): 0.02304
p-EGFR/EGFR relative to DMSO ([2]; ratio normalised to DMSO): 0.02768
Tumor weight (PC-9 xenograft): 0.04 g and 0.03 g and 0.02 g and 0.01 g
p-EGFR/EGFR ([3]; band density ratio): 0.2353
p-EGFR/EGFR relative to DMSO ([3]; ratio normalised to DMSO = 1): 0.2103
IC50 (wild-type EGFR; IC50 (μM) EGFR, ELISA, 3 μmol/L ATP): 0.09 µM
inhibition at 100 fM (wild-type EGFR; concentration 0.0001 nM (reference for normalisation), one value per replicate column): 0%
Inhibition (wild-type EGFR; concentration 0.03 nM, one value per replicate column, 3e-05 µM): 3.563 and 0.1327
Inhibition (wild-type EGFR; concentration 0.3 nM, one value per replicate column, 0.0003 µM): 14.0143 and 0.8626
inhibition at 0.003 µM (wild-type EGFR; concentration 3 nM, one value per replicate column): 33.2%
Inhibition (wild-type EGFR; concentration 3 nM, one value per replicate column, 0.003 µM): 30.0597
inhibition at 0.03 µM (wild-type EGFR; concentration 30 nM, one value per replicate column): 44.4%
Inhibition (wild-type EGFR; concentration 30 nM, one value per replicate column, 0.03 µM): 47.6443
inhibition at 0.3 µM (wild-type EGFR; concentration 300 nM, one value per replicate column): 59.3%
Inhibition (wild-type EGFR; concentration 300 nM, one value per replicate column, 0.3 µM): 58.7259
inhibition at 3 µM (wild-type EGFR; concentration 3000 nM, one value per replicate column): 68.1%
Inhibition (wild-type EGFR; concentration 3000 nM, one value per replicate column, 3 µM): 67.4851
inhibition at 30 µM (wild-type EGFR; concentration 30000 nM, one value per replicate column): 86.9%
Inhibition (wild-type EGFR; concentration 30000 nM, one value per replicate column, 30 µM): 93.1652
A450 (wild-type EGFR; concentration 0.0001 nM): 1.566 and 1.805
A450 (wild-type EGFR; concentration 0.03 nM): 1.521 and 1.803
A450 (wild-type EGFR; concentration 0.3 nM): 1.389 and 1.792
A450 (wild-type EGFR; concentration 3 nM): 1.147 and 1.352
A450 (wild-type EGFR; concentration 30 nM): 1.005 and 1.087
A450 (wild-type EGFR; concentration 300 nM): 0.817 and 0.92
A450 (wild-type EGFR; concentration 3000 nM): 0.706 and 0.788
A450 (wild-type EGFR; concentration 30000 nM): 0.469 and 0.401
Inhibitory efficacy (A549 cells; 1uM, given as fraction, Repeat 1-3): 0.1367 and 0.1269
Inhibitory efficacy (A549 cells; 2uM, given as fraction, Repeat 1-3): 0.193 and 0.2629
Inhibitory efficacy (A549 cells; 4uM, given as fraction, Repeat 1-3): 0.2103 and 0.2621
Inhibitory efficacy (A549 cells; 8uM, given as fraction, Repeat 1-3): 0.2141 and 0.1622
Inhibitory efficacy (A549 cells; 16uM, given as fraction, Repeat 1-3): 0.2043 and 0.1059
IC50 (A549 cells; Homo sapiens, A549, 48 h, read-out: IC50 (μM) A549, CCK-8, 48 h, average ± SD of three independent experiments): > 100 µM
inhibition at 1 µM (A549 cells; Homo sapiens, A549, read-out: Inhibitory efficacy, A549 cells, 1uM, given as fraction, Repeat 1-3): 11.7%
inhibition at 2 µM (A549 cells; Homo sapiens, A549, read-out: Inhibitory efficacy, A549 cells, 2uM, given as fraction, Repeat 1-3): 15.2%
inhibition at 4 µM (A549 cells; Homo sapiens, A549, read-out: Inhibitory efficacy, A549 cells, 4uM, given as fraction, Repeat 1-3): 18.5%
inhibition at 8 µM (A549 cells; Homo sapiens, A549, read-out: Inhibitory efficacy, A549 cells, 8uM, given as fraction, Repeat 1-3): 14.6%
inhibition at 16 µM (A549 cells; Homo sapiens, A549, read-out: Inhibitory efficacy, A549 cells, 16uM, given as fraction, Repeat 1-3): 11.9%
p-AKT/AKT ([4]; band density ratio): 0.08408
p-AKT/AKT relative to DMSO ([4]; ratio normalised to DMSO): 0.08452
Inhibitory efficacy (H1975 cells; H1975 cells, 8uM, given as fraction, Repeat 1-3): 0.07522 and 0.1057
IC50 (H1975 cells; Homo sapiens, NCI-H1975, 48 h, read-out: IC50 (μM) H1975, CCK-8, 48 h, average ± SD of three independent experiments): > 100 µM
inhibition at 8 µM (H1975 cells; Homo sapiens, NCI-H1975, read-out: Inhibitory efficacy, H1975 cells, 8uM, given as fraction, Repeat 1-3): 6.27%
Inhibitory efficacy (H460 cells; H460 cells, 2uM, given as fraction, Repeat 1-3): 0.04615 and 0.05031
IC50 (H460 cells; Homo sapiens, NCI-H460, 48 h, read-out: IC50 (μM) H460, CCK-8, 48 h, average ± SD of three independent experiments): > 100 µM
inhibition at 2 µM (H460 cells; Homo sapiens, NCI-H460, read-out: Inhibitory efficacy, H460 cells, 2uM, given as fraction, Repeat 1-3): 5.86%
IC50 (PC-9 cells): > 100 µM
